The record followed here is US20150203498A1, “INHIBITORS OF PHOSPHODIESTERASE 10 ENZYME” (Janssen Pharmaceutica NV, priority 2012, published 2015).

The structures appear in SMILES notation. Where “and” joins values, the source holds several entries; their conditions need not be identical. Identical values can stand only once.

Data set [1] concerns the target T1, hPDE10A2 (Homo sapiens, UniProt Q9Y233).
T1 construct: made in house; host or cells: Sf9 insect cells (baculovirus)
As to the kind of experiment: In vitro assay PDE10A, human recombinant enzyme (SPA, 3H-cAMP). The following applies: -log IC50 expressed in mol/L; 60 nM cAMP; read-out: PDE10A2 pIC50 - human enzyme (converted). The class given is biochemical. How it is done: (§1) Human or rat recombinant PDE10A (hPDE10A2 or rPDE10A2) was expressed in Sf9 cells using a recombinant hPDE10A or rPDE10A baculovirus construct. Cells were harvested after 48 h of infection and the hPDE10A or rPDE10A protein was purified by metal chelate chromatography on Ni-sepharose 6FF. Tested compounds were dissolved and diluted in 100% DMSO to a concentration 100 fold of the final concentration in the assay. Compound dilutions (0.4 μl) were added in 384 well plates to 20 μl of incubation buffer (50 mM Tris pH 7.8, 8.3 mM MgCl2, 1.7 mM EGTA). 10 μl of hPDE10A or rPDE10A enzyme in incubation buffer was added and the reaction was started by addition of 10 μl substrate to a final concentration of 60 nM cAMP and 0.008 μCi ^3H-cAMP. The reaction was incubated for 60 min. at RT. After incubation, the reaction was stopped with 20 μl of stop solution consisting of 17.8 mg/ml PDE SPA (scintillation proximity assay) beads. After sedimentation of the beads during 30 min. the radioactivity was measured in a Perkin Elmer Topcount scintillation counter and results were expressed as cpm. For blanc values the enzyme was omitted from the reaction and replaced by incubation buffer. Control values were obtained by addition of a final concentration of 1% DMSO instead of compound. A best fit curve was fitted by a minimum sum of squares method to the plot of % of control value substracted with blanc value versus compound concentration and the half maximal inhibitory concentration (IC50) value was derived from this curve.

The target of data set [2] is T2, rPDE10A2 (Rattus norvegicus, UniProt Q9QYJ6).
T2 construct: made in house; host or cells: Sf9 insect cells (baculovirus)
T2 sequence (Q9QYJ6 1-794): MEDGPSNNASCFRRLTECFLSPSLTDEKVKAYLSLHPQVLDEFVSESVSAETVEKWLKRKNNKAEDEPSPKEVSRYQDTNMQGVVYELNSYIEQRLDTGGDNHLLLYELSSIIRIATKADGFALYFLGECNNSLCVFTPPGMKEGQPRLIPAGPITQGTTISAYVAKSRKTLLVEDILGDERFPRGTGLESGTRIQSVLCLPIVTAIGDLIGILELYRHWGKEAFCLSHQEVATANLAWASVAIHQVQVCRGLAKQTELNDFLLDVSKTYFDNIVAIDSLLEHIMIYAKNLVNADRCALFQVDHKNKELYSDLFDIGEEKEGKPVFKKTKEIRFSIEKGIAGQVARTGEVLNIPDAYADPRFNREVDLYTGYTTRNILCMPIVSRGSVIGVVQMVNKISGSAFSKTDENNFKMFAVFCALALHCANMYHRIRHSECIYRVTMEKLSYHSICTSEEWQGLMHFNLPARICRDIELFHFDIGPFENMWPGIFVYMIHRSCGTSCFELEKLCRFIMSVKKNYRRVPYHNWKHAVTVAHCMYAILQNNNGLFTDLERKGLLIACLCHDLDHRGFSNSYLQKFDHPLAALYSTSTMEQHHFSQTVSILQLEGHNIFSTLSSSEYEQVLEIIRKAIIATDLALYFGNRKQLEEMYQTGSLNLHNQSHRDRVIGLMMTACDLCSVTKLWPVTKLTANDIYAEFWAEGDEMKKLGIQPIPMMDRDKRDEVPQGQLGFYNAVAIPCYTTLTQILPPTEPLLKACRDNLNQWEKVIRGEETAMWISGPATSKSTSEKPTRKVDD
As to the kind of experiment: In vitro assay PDE10A, rat recombinant enzyme (SPA, 3H-cAMP). The class given is biochemical. The following applies: -log IC50 expressed in mol/L; 60 nM cAMP; read-out: PDE10A2 pIC50 - rat enzyme (converted). The procedure:
as §1

Data set [3] concerns apomorphine-induced stereotypy. As to the kind of experiment: Apomorphine-induced stereotypy in rats (APO). The following applies: apomorphine 1.0 mg/kg i.v.; for ED50: Rattus norvegicus. The class given is in vivo, rat. How it is done:
Apomorphine (1.0 mg/kg, i.v.)-induced stereotypy (compulsive sniffing, licking, chewing) was scored every 5 min. over the first hour after injection of apomorphine, following a 1 hour interval pre-treatment with the test compound. The score system was: (3) pronounced, (2) moderate, (1) slight, and (0) absent. Criteria for drug-induced inhibition of stereotypy: fewer than 6 scores of 3 (0.16% false positives), fewer than 6 scores of 2 (0.0% false positives), or fewer than 7 scores of 1 (0.81% false positives).

In data set [4] the test system is plasma proteins. As to the kind of experiment: Plasma protein binding by equilibrium dialysis. The class given is in vitro ADME, human. The following applies: human plasma; for Free fraction, Average per subject: average of duplicate per subject; for Free fraction: single determinations, subjects 1-3 in duplicate, equilibrium dialysis 4 h, 37° C. The procedure: The plasma protein binding and blood distribution was investigated in healthy human subjects. Fresh blood was collected and centrifugated (approximately 1700 g for 10 min, room temperature, Hettich Rotixa AP centrifuge). The experiment was started within 4 hours after blood collection.
Individual blank plasma samples from three healthy male subjects, tested in duplicate, were fortified with compound la or compound lb at different concentrations (see Table 5). Plasma samples were spiked with 10 μl spike solution per ml of sample (1% ethanol (v/v)).
Fortified plasma was subjected to equilibrium dialysis (ED), for 4 h against a 0.067 M phosphate buffer, pH 7.17 at 37° C. in a Dianorm system with identical macro-1 Teflon cells and Spectra/Por® RC 2 dialysis membranes (MW cut-off 12-14 kDa). After dialysis, the contents of the two compartments of the dialysis cells were collected separately. The buffer samples were diluted with 1 mL of 5% Bovine Serum Albumin in a Phosphate buffer 0.05M, pH 7.5.
The plasma samples (before and after equilibrium dialysis) and buffer samples were analysed for compound la or compound lb using a qualified chiral LC-MS/MS assay on a API4000 mass spectrometer (Applied Biosystems).
The fraction of the unbound test compound (fu) was calculated as the ratio of the unbound concentration (Cu) in the buffer compartment to the total concentration (CED) in the protein compartment of the dialysis cells. The percentage of the free test compound was calculated as […]

Data set [5] can be described thus: Pharmacokinetics of oral microdose in healthy subjects. The format is in vivo, human. The following applies: single oral dose of 100 μg. The source says:
The pharmacokinetics of an oral microdose of compound 1 according to the invention and compound 1 of WO2011/051342 was studied by a single-dose, open-label, parallel-group, randomized pharmacokinetic (PK) study. Each treatment group consisted of 6 subjects (healthy men between 18 to 55 years with a body mass index (BMI) between 18 and 30 kg/m^2 (inclusive) and body weight not less than 50 kg). Subjects were randomized to receive either compound 1 of WO2011/051342 or compound 1 (according to the invention) treatment.
Compound 1 of WO2011/051342 and compound 1 according to the invention were supplied as a 0.1 mg/mL oral solution containing HP-β-CD and citric acid in purified water. The pH of the solution was adjusted to pH 2.0 by the use of hydrochloric acid. Subjects were admitted to the investigational site on Day -1. Following an overnight fast of at least 10 hours, subjects received a single oral aqueous solution of […] of compound 1 of WO2011/051342 or compound 1 according to the invention, with 240 mL of noncarbonated water as per randomization in the morning of Day 1 between 7:00 AM and 10:30 AM. Drinks were not allowed from 1 hour prior until 1 hour after drug administration. Blood samples were collected at specified time points to measure compound 1 of WO2011/051342 or compound 1 (according to the invention) plasma concentrations. Subjects were discharged on Day 3 after collecting the 48-hour PK sample. Subjects returned to the clinical unit on the morning of Day 4 for the 72-hour PK blood sampling.
Venous blood samples of 6 mL for the measurement of compound 1 of WO2011/051342 or compound 1 according to the invention plasma concentrations were collected at specified time points.
Plasma samples were analyzed to determine concentrations of compound 1 of WO2011/051342 or compound 1 according to the invention using a qualified liquid chromatography/mass spectrometry/mass spectrometry (LC-MS/MS) method.
Pharmacokinetic analyses were performed for all subjects' data who received a dose of compound 1 of WO2011/051342 and compound 1 according to the invention. Plasma concentrations versus time profiles were plotted for each subject. Mean concentration versus time profiles were plotted for each compound, based on planned blood sampling times. Descriptive statistics, including arithmetic mean, standard deviation, CV, geometric mean, median, minimum, and maximum were calculated for the plasma concentrations at each sampling time and for all PK parameters of compound 1 of WO2011/051342 and compound 1 according to the invention.

Where [6] appears, read: iv, 1 hour pre-treatment with test compound, dose at which 50% of animals show the effect.
Setting [7] is: male, human, plasma, 100 ug, fasted, mean.

T1 sequence (Q9Y233 267-1055): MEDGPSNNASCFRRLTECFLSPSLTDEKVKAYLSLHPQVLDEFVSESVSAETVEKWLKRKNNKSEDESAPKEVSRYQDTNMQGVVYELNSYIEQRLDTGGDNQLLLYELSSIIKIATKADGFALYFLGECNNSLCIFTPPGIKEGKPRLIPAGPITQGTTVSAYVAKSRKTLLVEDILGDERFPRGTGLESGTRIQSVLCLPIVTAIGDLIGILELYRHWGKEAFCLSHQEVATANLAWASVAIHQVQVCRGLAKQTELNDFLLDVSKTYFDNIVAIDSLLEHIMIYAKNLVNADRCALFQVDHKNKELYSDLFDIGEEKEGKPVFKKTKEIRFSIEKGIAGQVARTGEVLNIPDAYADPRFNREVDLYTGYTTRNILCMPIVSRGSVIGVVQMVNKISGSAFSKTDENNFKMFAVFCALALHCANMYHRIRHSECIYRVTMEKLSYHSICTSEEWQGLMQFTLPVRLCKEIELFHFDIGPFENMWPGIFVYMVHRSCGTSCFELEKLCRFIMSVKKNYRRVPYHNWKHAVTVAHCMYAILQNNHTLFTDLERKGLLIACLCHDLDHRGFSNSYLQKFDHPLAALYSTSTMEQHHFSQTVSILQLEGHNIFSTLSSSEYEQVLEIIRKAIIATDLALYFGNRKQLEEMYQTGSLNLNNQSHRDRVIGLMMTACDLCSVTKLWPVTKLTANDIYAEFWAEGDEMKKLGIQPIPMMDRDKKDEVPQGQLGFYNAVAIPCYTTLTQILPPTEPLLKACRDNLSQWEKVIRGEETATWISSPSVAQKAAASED

For the compound `COCC(O)c1ccc(-c2c(C)nc3c(N4CCOCC4)ccnn23)cn1` (single isomer, unassigned) [Compound 1b], the melting point was 135.7 °C. For the same compound, in data set [1], the IC50 is 60.3 nM. Also, the IC50 in data set [2] is 50.1 nM. Moreover, the “APO ED50” value in data set [3] (1 hour pre-treatment with test compound, dose at which 50% of animals show the effect) is on record as 1.2 mg/kg. For the same compound, in data set [4] (0.1 μg/ml), the “Average percentage of free compound in plasma” value is reported as 53.4%; the “Free fraction, Average per subject” value is 54.0% and 56.3% and 50.0%; the Free fraction was 55.2% and 57.4% and 46.9% and 53.1% and 54.9%. In data set [4] (13 μg/ml), the “Average percentage of free compound in plasma” value was determined as 50.9%; the “Free fraction, Average per subject” value was 52.6% and 49.6% and 50.5%; the Free fraction was 52.7% and 46.6% and 51.4% and 49.7% and 51.9% and 53.3%. Moreover, the “Free fraction, Average (S.D.) (n = 12)” value in data set [4] (0.1 and 13 μg/ml pooled, three subjects in duplicate) was 52.2 (3.2) %. For the same compound, the “Concentration dependency in the plasma protein binding” value in data set [4] (within the concentration range tested) is reported as “No relevant concentration dependency”.

`Cc1nc2c(N3CCOCC3)ccnn2c1-c1ccc(C2(O)CCOCC2)nc1` [Compound 3, 4-[5-(2-Methyl-8-morpholin-4-ylimidazo[1,2-b]pyridazin-3-yl)pyridin-2-yl]tetrahydro-2H-pyran-4-ol] returned a melting point of 189.2 °C. In addition, the IC50 in data set [1] was 27.5 nM. Moreover, the 50% effective dose (ED50) in data set [3] (setting [6]) amounted to 0.31 mg/kg.

Compound `Cc1nc2c(N3CCOCC3)nccn2c1-c1ccc(C2(O)CCOCC2)nc1` [Compound 4, 4-[5-(2-Methyl-8-morpholin-4-ylimidazo[1,2-a]pyrazin-3-yl)pyridin-2-yl]tetrahydro-2H-pyran-4-ol] came in with a melting point of 181.6 °C. Moreover, the IC50 in data set [1] was 112 nM. Besides, in data set [3] (setting [6]), the ED50 came to 0.31 mg/kg.

Turning to `COCC(O)c1ccc(-c2c(C)nc3c(N4CCOCC4)nccn23)cn1` (centres unmarked) [Compound 2, 2-Methoxy-1-[5-(2-methyl-8-morpholin-4-ylimidazo[1,2-a]pyrazin-3-yl)pyridin-2-yl]ethanol], the melting point turned out to be 106.9 °C. Also, the IC50 in data set [1] was 263 nM. The ED50 in data set [3] (setting [6]) amounted to 0.31 mg/kg.

In the case of `COCC(O)c1ccc(-c2c(C)nc3c(N4CCOCC4)ccnn23)cn1` (centres unmarked) [Compound 1, 2-Methoxy-1-[5-(2-methyl-8-morpholin-4-ylimidazo[1,2-b]pyridazin-3-yl)pyridin-2-yl]ethanol], the melting point is 137.2 °C. The IC50 in data set [1] was 64.6 nM. Also, the IC50 in data set [2] is 55 nM. The 50% effective dose (ED50) in data set [3] (compound dosed orally, 1 hour pre-treatment) was determined as 1 mg/kg. Besides, the Tmax in data set [5] (male, human, plasma, 100 ug, fasted, Median (Min-Max)) was found to be 0.64 h. In data set [5] (setting [7]), this compound came in with an AUC(0-inf) of 2.64 ng·h/mL, an area under the curve AUC(0-t) of 2.61 ng·h/mL, a Cmax of 0.758 ng/mL and a Vd/F of 333 ± 117 L. In data set [5] (setting [7]), this compound had a half-life of 5.7 h. For the same compound, in data set [5], the “Cl/F, fold lower compared to compound 1 of WO2011/051342” value is “approximately 3.8 fold” and the “Vd/F, fold lower compared to compound 1 of WO2011/051342” value is “approximately 3.5 fold”. Besides, in data set [5] (fasted, mean), the CL/F was 47.9 ± 24.6 L/h and 47.9 L/h; the λz amounted to 0.148 h⁻¹.

One may read the melting point as the temperature, or range, at which the solid turns liquid. Broadly, the ED50 is the dose at which the effect has come halfway, by size or by number of responders. As usually defined, the Tmax is the time at which the peak concentration occurs. What is called AUC(0-inf) is the area under the concentration-time curve extrapolated to infinity. Read a low AUC(0-inf) as low exposure. As a reminder, the AUC(0-t) is exposure summed from dosing to a finite time, without extrapolation to infinity. A word on the Cmax: it is the maximum level reached in the sampled fluid or tissue. What is called Vd/F is the apparent distribution volume after extravascular dosing. The half-life is the time needed for the level to fall by half in the phase considered. Low readings indicate fast loss, high ones slow loss. A word on the CL/F: it is clearance divided by bioavailability, as obtained after extravascular dosing.
